Assay [1] addresses T1, Type-1 angiotensin II receptor (Homo sapiens, UniProt P30556).
T1 sequence (P30556 whole entry): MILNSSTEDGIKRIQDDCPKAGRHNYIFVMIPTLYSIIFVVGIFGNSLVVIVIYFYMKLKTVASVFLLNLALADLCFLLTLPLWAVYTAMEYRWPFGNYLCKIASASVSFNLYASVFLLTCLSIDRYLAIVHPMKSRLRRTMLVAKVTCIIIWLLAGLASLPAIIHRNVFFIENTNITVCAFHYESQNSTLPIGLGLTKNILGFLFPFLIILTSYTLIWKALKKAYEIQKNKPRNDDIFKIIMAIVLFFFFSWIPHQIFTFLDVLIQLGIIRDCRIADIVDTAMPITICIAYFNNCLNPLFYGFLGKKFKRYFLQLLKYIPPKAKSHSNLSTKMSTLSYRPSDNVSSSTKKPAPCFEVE
Put plainly: antagonism of angiotensin II type 1 receptor – cell-based, uHTS hits, selectivity assay for APJ receptor antagonist project, dose response (AID 463214).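 Further: antagonist potency against angiotensin II stimulated AT1 response.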 In kind it is functional.

A short description of assay [2]: non-specific 3'UTR reporter inhibition in Clone20-Shn3RL – cell-based, Renilla luciferase, cherry-picked, counter-screen for Shn3 inhibitor project, dose response (AID 624133). In kind it is functional. A general note: A counterscreen serves to expose hits that act by an unwanted route or on another target.
Assay [3] addresses Fatty acid synthase (Homo sapiens, UniProt P49327). Put plainly: inhibition of human FAS-TE enzyme activity – biochemical, kinetic fluorescence intensity, dose response (AID 624326).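 Further: rate of fluorescence rise from hydrolysis of a fluorogenic O-methyl fluorescein ester substrate.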 In kind it is functional.
For assay [4], the target named is T2, High affinity choline transporter 1 (Homo sapiens, UniProt Q9GZV3).
T2 sequence (Q9GZV3 whole entry): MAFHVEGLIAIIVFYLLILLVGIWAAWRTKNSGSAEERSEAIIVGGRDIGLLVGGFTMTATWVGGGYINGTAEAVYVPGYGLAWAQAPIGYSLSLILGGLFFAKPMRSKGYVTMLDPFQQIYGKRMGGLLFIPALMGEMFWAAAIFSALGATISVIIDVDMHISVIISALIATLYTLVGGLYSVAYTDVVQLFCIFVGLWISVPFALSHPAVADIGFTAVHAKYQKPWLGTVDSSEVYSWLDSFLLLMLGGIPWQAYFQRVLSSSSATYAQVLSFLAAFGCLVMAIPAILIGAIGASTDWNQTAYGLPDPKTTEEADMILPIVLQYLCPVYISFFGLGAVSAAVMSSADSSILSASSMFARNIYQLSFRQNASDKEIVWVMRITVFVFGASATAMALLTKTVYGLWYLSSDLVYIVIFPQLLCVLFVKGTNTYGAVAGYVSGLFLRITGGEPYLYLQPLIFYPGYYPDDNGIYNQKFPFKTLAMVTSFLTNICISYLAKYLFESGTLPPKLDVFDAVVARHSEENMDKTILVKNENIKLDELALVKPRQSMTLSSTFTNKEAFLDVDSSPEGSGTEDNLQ
Put plainly: human choline transporter blockers, potency – cell-based, 5-point CRC, membrane potential dye, dose response (AID 504840). The class given is functional.

In assay [5] the target is T3, RNA-binding protein pos-1 (Caenorhabditis elegans, UniProt G5EF15).
T3 sequence (G5EF15 whole entry): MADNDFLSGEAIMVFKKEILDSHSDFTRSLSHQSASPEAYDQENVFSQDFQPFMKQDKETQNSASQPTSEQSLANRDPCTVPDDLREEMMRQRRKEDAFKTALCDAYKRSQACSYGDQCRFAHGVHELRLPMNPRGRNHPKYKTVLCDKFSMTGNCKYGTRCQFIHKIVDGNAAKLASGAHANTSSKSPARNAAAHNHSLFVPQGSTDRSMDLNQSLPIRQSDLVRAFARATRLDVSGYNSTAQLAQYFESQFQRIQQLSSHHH
Put plainly: disruptors of C. elegans POS-1 RNA interaction – biochemical, fluorescence polarization, dose response (AID 1964).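 Further: purified POS-1 fused to maltose binding protein made in E. coli; potency of compounds blocking POS-1 binding to fluorescent RNA.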

The structures appear in SMILES notation. The source made the active and inactive calls.

Chain of Fatty acid synthase (P49327 whole entry): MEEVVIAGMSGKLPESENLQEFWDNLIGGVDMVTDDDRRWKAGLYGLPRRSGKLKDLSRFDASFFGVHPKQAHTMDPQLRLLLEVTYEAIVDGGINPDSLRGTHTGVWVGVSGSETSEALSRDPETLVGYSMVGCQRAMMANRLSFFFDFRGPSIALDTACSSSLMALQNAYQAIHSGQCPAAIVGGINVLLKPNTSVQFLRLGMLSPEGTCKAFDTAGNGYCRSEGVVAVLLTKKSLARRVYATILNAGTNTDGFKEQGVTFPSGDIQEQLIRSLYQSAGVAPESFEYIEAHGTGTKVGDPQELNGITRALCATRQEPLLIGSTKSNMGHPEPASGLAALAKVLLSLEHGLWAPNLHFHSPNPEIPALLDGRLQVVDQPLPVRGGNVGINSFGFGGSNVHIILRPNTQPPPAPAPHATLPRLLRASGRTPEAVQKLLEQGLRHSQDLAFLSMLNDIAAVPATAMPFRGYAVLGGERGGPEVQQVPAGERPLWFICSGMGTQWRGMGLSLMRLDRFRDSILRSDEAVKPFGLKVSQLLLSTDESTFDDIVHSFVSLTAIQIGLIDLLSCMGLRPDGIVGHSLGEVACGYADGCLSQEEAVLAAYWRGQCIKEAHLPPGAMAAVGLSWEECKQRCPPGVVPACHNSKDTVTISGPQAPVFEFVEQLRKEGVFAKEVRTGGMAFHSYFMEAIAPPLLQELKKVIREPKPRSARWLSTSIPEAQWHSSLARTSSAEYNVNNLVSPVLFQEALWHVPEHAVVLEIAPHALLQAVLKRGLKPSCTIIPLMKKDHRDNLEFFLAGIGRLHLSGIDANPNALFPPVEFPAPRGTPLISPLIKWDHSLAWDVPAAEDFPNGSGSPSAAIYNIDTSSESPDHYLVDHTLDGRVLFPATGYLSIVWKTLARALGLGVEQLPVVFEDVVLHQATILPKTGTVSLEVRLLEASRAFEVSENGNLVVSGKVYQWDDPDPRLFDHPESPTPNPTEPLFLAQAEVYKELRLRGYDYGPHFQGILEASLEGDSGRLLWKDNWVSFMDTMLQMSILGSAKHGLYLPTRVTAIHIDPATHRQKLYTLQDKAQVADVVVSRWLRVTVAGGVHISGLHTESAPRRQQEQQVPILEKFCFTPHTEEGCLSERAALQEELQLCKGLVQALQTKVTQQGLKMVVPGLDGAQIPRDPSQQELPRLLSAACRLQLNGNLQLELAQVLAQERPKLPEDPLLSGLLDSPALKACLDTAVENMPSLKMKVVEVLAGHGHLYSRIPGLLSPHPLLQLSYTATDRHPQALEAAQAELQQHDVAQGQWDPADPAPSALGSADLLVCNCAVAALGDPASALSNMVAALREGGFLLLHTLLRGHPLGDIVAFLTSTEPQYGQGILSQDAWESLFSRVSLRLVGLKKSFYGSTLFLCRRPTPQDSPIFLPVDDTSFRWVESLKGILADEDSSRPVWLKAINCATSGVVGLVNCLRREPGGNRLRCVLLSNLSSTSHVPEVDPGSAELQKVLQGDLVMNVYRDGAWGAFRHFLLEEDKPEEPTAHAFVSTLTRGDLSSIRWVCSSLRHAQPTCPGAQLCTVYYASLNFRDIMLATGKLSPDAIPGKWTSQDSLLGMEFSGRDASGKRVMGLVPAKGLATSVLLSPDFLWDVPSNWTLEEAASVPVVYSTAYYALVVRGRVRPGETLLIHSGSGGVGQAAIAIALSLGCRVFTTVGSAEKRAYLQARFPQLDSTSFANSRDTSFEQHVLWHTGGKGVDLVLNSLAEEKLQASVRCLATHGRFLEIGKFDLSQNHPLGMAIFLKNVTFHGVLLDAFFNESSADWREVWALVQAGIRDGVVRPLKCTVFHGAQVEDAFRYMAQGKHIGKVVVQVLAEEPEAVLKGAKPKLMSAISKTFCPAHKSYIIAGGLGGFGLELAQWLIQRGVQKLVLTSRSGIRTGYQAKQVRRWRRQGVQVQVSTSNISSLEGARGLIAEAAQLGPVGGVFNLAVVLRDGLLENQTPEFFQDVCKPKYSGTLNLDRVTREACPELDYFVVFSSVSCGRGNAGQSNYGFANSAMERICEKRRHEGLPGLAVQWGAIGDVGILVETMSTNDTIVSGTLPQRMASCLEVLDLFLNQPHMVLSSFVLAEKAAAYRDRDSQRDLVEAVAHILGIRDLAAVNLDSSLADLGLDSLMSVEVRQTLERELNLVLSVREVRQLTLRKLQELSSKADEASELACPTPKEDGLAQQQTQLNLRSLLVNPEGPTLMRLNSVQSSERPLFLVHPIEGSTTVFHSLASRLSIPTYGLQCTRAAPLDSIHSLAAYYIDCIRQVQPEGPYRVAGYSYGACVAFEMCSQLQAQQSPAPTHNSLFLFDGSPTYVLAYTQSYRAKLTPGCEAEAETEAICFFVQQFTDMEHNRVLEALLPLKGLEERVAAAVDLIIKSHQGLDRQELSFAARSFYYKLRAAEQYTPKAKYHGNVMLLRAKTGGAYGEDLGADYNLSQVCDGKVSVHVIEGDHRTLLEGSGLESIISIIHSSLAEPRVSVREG

One may read the IC50 as the concentration needed to halve the response being measured. A word on the AC50: it is the midpoint of the concentration-response curve, whichever way the signal moves. `CCC1CCCCN1S(=O)(=O)c1ccc(NC(=O)c2nc(S(C)(=O)=O)ncc2Cl)cc1` (stereo not given): the IC50 in assay [1] is 5.9 µM (active); in assay [3], 4.03 µM (active); in assay [4], 15.8 µM (active). Moreover, the AC50 in assay [2] is 2.46 µM (active).

As usually defined, the EC50 is the concentration needed to bring the measured effect to its halfway point. In the case of `CCCC[n+]1ccn(C2=C([N-]S(=O)(=O)c3ccc(Cl)cc3)C(=O)c3ccccc3C2=O)c1`, the EC50 in assay [5] is > 300 µM (inconclusive).

For the origin of these results see ChEMBL document CHEMBL1201862, “PubChem BioAssay data set” (2004).
